This assay concerns the target T1, PhlH (2P24_PhlH) (Pseudomonas fluorescens, UniProt Q4JIX5).
T1 construct: purified recombinant His6-tagged PhlH
As to the kind of experiment: ITC ([…] °C, one-site model); EMSA shows PLT releases PhlH from phlG promoter DNA. It is filed as binding. Background: In EMSA bound probe runs differently from free probe, usually more slowly.

The structures appear in SMILES notation.

The Kd is the concentration at which binding is half-saturated.

T1 sequence (Q4JIX5 entry or part of it): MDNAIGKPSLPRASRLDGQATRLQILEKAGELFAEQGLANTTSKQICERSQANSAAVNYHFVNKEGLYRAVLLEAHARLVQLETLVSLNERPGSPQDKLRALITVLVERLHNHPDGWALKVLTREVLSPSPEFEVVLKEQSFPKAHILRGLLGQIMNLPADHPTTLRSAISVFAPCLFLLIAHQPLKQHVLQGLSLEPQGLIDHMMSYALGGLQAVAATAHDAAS

The compound `O=C(c1cc(Cl)c(Cl)[nH]1)c1c(O)cccc1O` [PLT, pyoluteorin] returned a Kd of 1000 nM.

Source of the values: PMC11878095, “Interspecies signaling modulates the biosynthesis of antimicrobial secondary metabolites related to biological control activities of Pseudomonas fluorescens 2P24” (Microbiology Spectrum, 2025).
